Laboratory results published in patent US9884859B2, “Solid form of pyrazolopyridine compound” (SUNSHINE LAKE PHARMA CO., LTD., priority 2013, dated 2018).

Assays:
[1] = Hygroscopicity test (Chinese Pharmacopoeia 2010, weight gain by sorption); assay type: physicochemical; details: 25° C.±1° C., about 24 h; for Result (hygroscopic properties): cell wraps: 'Low hygroscopic'; for Weight gain by absorption (%): constant humidity (saturated ammonium chloride or ammonium sulfate)
Protocol: Hygroscopicity Test of Crystalline Form I and Form III of the Compound of Formula (I) 1 Instrument and Regents 1.1 Instrument: 1/100000 Scale, XP205DR 1.2 Test Method According to “Chinese Pharmacopoeia”2010 edition, proportion II, XI X J. 1) Keep a dry glass weighing bottle with stopper (external diameter: 50 mm, height: 15 mm) in 25° C.±1° C. of thermostatic drier with saturated solution of ammonium chloride or ammonium sulfate placing on the bottom, precisely weighed (m1). 2) An appropriate amount of sample was spread in the weighing bottle by a millimeter thick, precisely weighed (m2). 3) An open weighing bottle and lid were kept together in environment of constant temperature and humidity for about 24 h.

[2] = Stability (acceleration) test of crystalline forms, purity by HPLC; assay type: physicochemical; details: for change of appearance, related substance and crystalline form: 30 days; for Overall impurity (%) / impurity A (%) / impurity B (%) / purity (%): HPLC; for appearance: cell wraps ('powder' on next line)
[3] = day 0, cell wraps: shows characteristic peaks of the crystalline form
[4] = day 30, 40° C.±2° C./75% RH±5%, Yes = shows characteristic peaks of the crystalline form

## COC(=O)N(C)c1c(N)nc(-c2nn(Cc3ccccc3F)c3ncccc23)nc1N [crystalline form I, methyl {4,6-diamino-2-[1-(2-fluorobenzyl)-1H-pyrazolo[3,4-B]pyridine-3-yl]pyrimidine-5-yl}N-methylcarbamate]
[1]
  Result (hygroscopic properties): Low
  Weight gain by absorption (%): 0.1%
[2]; 40° C.±2° C./75% RH±5%
  stability: stable for a month
  change of appearance, related substance and crystalline form: did not change
[2]; day 0, 40° C.±2° C./75% RH±5%
  Overall impurity (%): 0.44%
  impurity A (%): 0.06%
  impurity B (%): 0.26%
  purity (%): 99.6%
  appearance: Off-white
[2]; [3]
  DSC: Shows
  XRD: Shows
[2]; day 30, 40° C.±2° C./75% RH±5%
  Overall impurity (%): 0.43%
  impurity A (%): 0.06%
  impurity B (%): 0.26%
  purity (%): 99.6%
  appearance: Off-white
[2]; [4]
  DSC: Yes
  XRD: Yes

## COC(=O)N(C)c1c(N)nc(-c2nn(Cc3ccccc3F)c3ncccc23)nc1N [crystalline form III, methyl {4,6-diamino-2-[1-(2-fluorobenzyl)-1H-pyrazolo[3,4-B]pyridine-3-yl]pyrimidine-5-yl}N-methylcarbamate]
[1]
  Result (hygroscopic properties): Low
  Weight gain by absorption (%): 0.04%
[2]; 40° C.±2° C./75% RH±5%
  stability: stable for a month
  change of appearance, related substance and crystalline form: did not change
[2]; day 0, 40° C.±2° C./75% RH±5%
  Overall impurity (%): 0.65%
  impurity A (%): 0.05%
  impurity B (%): 0.35%
  purity (%): 99.4%
  appearance: pale yellow
[2]; [3]
  DSC: Show
  XRD: Show
[2]; day 30, 40° C.±2° C./75% RH±5%
  Overall impurity (%): 0.57%
  impurity A (%): 0.04%
  impurity B (%): 0.34%
  purity (%): 99.4%
  appearance: pale yellow
[2]; [4]
  DSC: Yes
  XRD: Yes
